Here are results for 43 compounds from US11591336B2 (Relay Therapeutics, Inc., priority 2017, dated 2023).

The target of this assay is SHP2 (Homo sapiens (Human), UniProt Q06124). Kind of assay: SHP2 Allosteric Inhibition Assay (DiFMUP prompt fluorescence). It is filed as biochemical. The conditions noted are these: 0.25 nM SHP2 activated with 0.5 μM peptide IRS1_pY1172(dPEG8)pY1222; substrate DiFMUP 100 μM; 25° C.

A word on the IC50: it is the concentration at which inhibition is half-maximal.

Where a name gives a salt, the structure may show the parent alone.

Sequence of SHP2 (Q06124 whole entry): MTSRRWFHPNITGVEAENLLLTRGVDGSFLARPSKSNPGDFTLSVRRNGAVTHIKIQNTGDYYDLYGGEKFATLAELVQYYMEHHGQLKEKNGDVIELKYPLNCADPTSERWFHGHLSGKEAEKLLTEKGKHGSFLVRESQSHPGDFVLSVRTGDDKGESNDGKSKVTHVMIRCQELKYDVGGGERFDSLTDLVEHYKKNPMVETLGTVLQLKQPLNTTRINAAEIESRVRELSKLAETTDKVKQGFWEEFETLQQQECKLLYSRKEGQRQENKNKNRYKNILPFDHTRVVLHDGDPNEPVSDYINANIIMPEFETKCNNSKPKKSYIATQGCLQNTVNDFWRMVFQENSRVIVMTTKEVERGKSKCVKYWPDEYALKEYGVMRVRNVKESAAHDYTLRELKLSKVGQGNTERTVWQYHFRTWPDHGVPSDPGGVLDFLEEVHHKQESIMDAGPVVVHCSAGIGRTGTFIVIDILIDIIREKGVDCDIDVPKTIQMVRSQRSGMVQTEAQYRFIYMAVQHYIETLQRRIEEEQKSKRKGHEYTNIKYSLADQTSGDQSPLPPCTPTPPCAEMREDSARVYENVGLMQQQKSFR

As to `C[C@@H]1OCC2(CCN(c3cnc4c(N5CC[C@H](C)c6cc(-c7ncon7)ccc65)n[nH]c4n3)CC2)[C@@H]1N` [Compound 227, (3S,4S)-3-methyl-8-(3-((S)-4-methyl-6-(1,2,4-oxadiazol-3-yl)-3,4-dihydroquinolin-1(2H)-yl)-1H-pyrazolo[3,4-b]pyrazin-6-yl)-2-oxa-8-azaspiro[4.5]decan-4-amine], the IC50 is < 1000 nM.
Next, `C[C@@H]1OCC2(CCN(c3cnc4c(N5CCCc6c5ccnc6C#N)n[nH]c4n3)CC2)[C@@H]1N` [Compound 228]: < 1000 nM; `C[C@@H]1OCC2(CCN(c3cnc4c(N5CCC(=C(F)F)c6ccccc65)n[nH]c4n3)CC2)[C@@H]1N` [Compound 231]: < 1000 nM.
Next, `C[C@@H]1OCC2(CCN(c3cnc4c(N5CCCc6c5ccnc6C5CC5)n[nH]c4n3)CC2)[C@@H]1N` [Compound 232]: < 1000 nM; `Cc1nccc2c1CCCN2c1n[nH]c2nc(N3CCC4(CC3)CO[C@@H](C)[C@H]4N)cnc12` [Compound 233]: < 1000 nM; `C[C@@H]1OCC2(CCN(c3cnc4c(N5CCNc6ccccc65)n[nH]c4n3)CC2)[C@@H]1N` [Compound 234]: < 1000 nM.
For `CC(=O)N1CCN(c2n[nH]c3nc(N4CCC5(CC4)CO[C@@H](C)[C@H]5N)cnc23)c2ccccc21` [Compound 235] the value was < 1000 nM; for `C[C@@H]1OCC2(CCN(c3cnc4c(N5CCCc6c5ccnc6C(F)F)n[nH]c4n3)CC2)[C@@H]1N` [Compound 236], < 1000 nM; for `C[C@@H]1OCC2(CCN(c3cnc4c(N5CCCc6nc(C7=CCOCC7)ccc65)n[nH]c4n3)CC2)[C@@H]1N` [Compound 237], < 1000 nM.
On to `C[C@@H]1OCC2(CCN(c3cnc4c(N5CC(=O)N(C)c6ccccc65)n[nH]c4n3)CC2)[C@@H]1N` [Compound 238], for which the IC50 is < 1000 nM.
Consider `C[C@@H]1OCC2(CCN(c3cnc4c(N5CCCc6nc(C7CCOCC7)ccc65)n[nH]c4n3)CC2)[C@@H]1N` [Compound 239], for which the IC50 is < 1000 nM.
For `C[C@@H]1OCC2(CCN(c3cnc4c(N5CCCc6c5ccn(C)c6=O)n[nH]c4n3)CC2)[C@@H]1N` [Compound 240] the value was < 1000 nM; for `C[C@@H]1OCC2(CCN(c3cnc4c(N5CC(=O)Nc6cnccc65)n[nH]c4n3)CC2)[C@@H]1N` [Compound 241], < 1000 nM.
Take `C[C@@H]1OCC2(CCN(c3cnc4c(N5CCCc6nc(C(N)=O)ccc65)n[nH]c4n3)CC2)[C@@H]1N` [Compound 243, 5-(6-((3S,4S)-4-amino-3-methyl-2-oxa-8-azaspiro[4.5]decan-8-yl)-1H-pyrazolo[3,4-b]pyrazin-3-yl)-5,6,7,8-tetrahydro-1,5-naphthyridine-2-carboxamide]: the IC50 is < 1000 nM.
For `C[C@@H]1OCC2(CCN(c3cnc4c(N5CCCc6c(C(=O)O)cccc65)n[nH]c4n3)CC2)[C@@H]1N` [Compound 244, 1-(6-((3S,4S)-4-amino-3-methyl-2-oxa-8-azaspiro[4.5]decan-8-yl)-1H-pyrazolo[3,4-b]pyrazin-3-yl)-1,2,3,4-tetrahydroquinoline-5-carboxylic Acid] the value was < 1000 nM; for `C[C@@H]1OCC2(CCN(c3cnc4c(N5CCCc6nc(-c7ncon7)ccc65)n[nH]c4n3)CC2)[C@@H]1N` [Compound 246, (3S,4S)-8-(3-(6-(1,2,4-oxadiazol-3-yl)-3,4-dihydro-1,5-naphthyridin-1(2H)-yl)-1H-pyrazolo[3,4-b]pyrazin-6-yl)-3-methyl-2-oxa-8-azaspiro[4.5]decan-4-amine], < 1000 nM.
For `C[C@@H]1OCC2(CCN(c3cnc4c(N5CCNc6ncccc65)n[nH]c4n3)CC2)[C@@H]1N` [Compound 247], the IC50 was < 1000 nM.
In the case of `C[C@@H]1OCC2(CCN(c3cnc4c(N5CCCc6nc(C#N)ccc65)n[nH]c4n3)CC2)[C@@H]1N` [Compound 248], the IC50 was < 1000 nM.
Next, `C[C@@H]1OCC2(CCN(c3cnc4c(N5CCC(C(F)F)c6ccccc65)n[nH]c4n3)CC2)[C@@H]1N` (stereo partly shown) [Compound 250]: < 1000 nM; `C[C@@H]1OCC2(CCN(c3cnc4c(N5CCCc6c(C7CCOCC7)cccc65)n[nH]c4n3)CC2)[C@@H]1N` [Compound 251]: < 1000 nM; `C[C@@H]1OCC2(CCN(c3cnc4c(N5CCCc6nc(-n7cccn7)ccc65)n[nH]c4n3)CC2)[C@@H]1N` [Compound 252]: < 1000 nM.
`COC(=O)n1nc(N2CCCc3ncccc32)c2ncc(N3CCC4(CC3)CO[C@@H](C)[C@H]4N)nc21` [Compound 253, methyl 6-[(3S,4S)-4-amino-3-methyl-2-oxa-8-azaspiro[4.5]decan-8-yl]-3-(1,2,3,4-tetrahydro-1,5-naphthyridin-1-yl)-1H-pyrazolo[3,4-b]pyrazine-1-carboxylate hydrochloride]: the 50% inhibitory concentration (IC50) was < 1000 nM.
For `C[C@@H]1OCC2(CCN(c3cnc4c(N5CCCc6nc(-c7cc[nH]n7)ccc65)n[nH]c4n3)CC2)[C@@H]1N` [Compound 254, (3S,4S)-8-(3-(6-(1H-pyrazol-3-yl)-3,4-dihydro-1,5-naphthyridin-1(2H)-yl)-1H-pyrazolo[3,4-b]pyrazin-6-yl)-3-methyl-2-oxa-8-azaspiro[4.5]decan-4-amine] the value was < 1000 nM.
Next, `C[C@@H]1OCC2(CCN(c3cnc4c(N5CCCc6nc(-c7ccnn7C)ccc65)n[nH]c4n3)CC2)[C@@H]1N` [Compound 255, (3S,4S)-3-methyl-8-{3-[6-(1-methyl-1H-pyrazol-5-yl)-1,2,3,4-tetrahydro-1,5-naphthyridin-1-yl]-1H-pyrazolo[3,4-b]pyrazin-6-yl}-2-oxa-8-azaspiro[4.5]decan-4-amine hydrochloride]: < 1000 nM.
For `C[C@@H]1OCC2(CCN(c3cnc4c(N5CCCc6nc(N7CCNCC7)ccc65)n[nH]c4n3)CC2)[C@@H]1N` [Compound 256, (3S,4S)-3-methyl-8-{3-[6-(piperazin-1-yl)-1,2,3,4-tetrahydro-1,5-naphthyridin-1-yl]-1H-pyrazolo[3,4-b]pyrazin-6-yl}-2-oxa-8-azaspiro[4.5]decan-4-amine dihydrochloride] the value was < 1000 nM; for `C[C@@H]1OCC2(CCN(c3cnc4c(N5CCN(C(N)=O)c6ncccc65)n[nH]c4n3)CC2)[C@@H]1N` [Compound 258, 1-{6-[(3S,4S)-4-amino-3-methyl-2-oxa-8-azaspiro[4.5]decan-8-yl]-1H-pyrazolo[3,4-b]pyrazin-3-yl}-1H,2H,3H,4H-pyrido[2,3-b]pyrazine-4-carboxamide hydrochloride], < 1000 nM; for `C[C@@H]1OCC2(CCN(c3cnc4c(N5CCCc6nc(-c7cn[nH]c7)ccc65)n[nH]c4n3)CC2)[C@@H]1N` [Compound 259], < 1000 nM.
Consider `C[C@@H]1OCC2(CCN(c3cnc4c(N5CCCc6nc(N7CC[C@@H](O)C7)ccc65)n[nH]c4n3)CC2)[C@@H]1N` [Compound 260], for which the IC50 was < 1000 nM.
Next, `C[C@@H]1OCC2(CCN(c3cnc4c(N5CCCc6nc(N7CC[C@H](O)C7)ccc65)n[nH]c4n3)CC2)[C@@H]1N` [Compound 261, (3S)-1-(5-{6-[(3S,4S)-4-amino-3-methyl-2-oxa-8-azaspiro[4.5]decan-8-yl]-1H-pyrazolo[3,4-b]pyrazin-3-yl}-5,6,7,8-tetrahydro-1,5-naphthyridin-2-yl)pyrrolidin-3-ol]: < 1000 nM.
Next, `C[C@@H]1CCN(c2n[nH]c3nc(N4CCC5(CC4)CO[C@@H](C)[C@H]5N)cnc23)c2ccc(-c3cnn(C)c3)nc21` [Compound 266, (3S,4S)-3-methyl-8-{3-[(4R)-4-methyl-6-(1-methyl-1H-pyrazol-4-yl)-1,2,3,4-tetrahydro-1,5-naphthyridin-1-yl]-1H-pyrazolo[3,4-b]pyrazin-6-yl}-2-oxa-8-azaspiro[4.5]decan-4-amine]: < 1000 nM; `C[C@@H]1OCC2(CCN(c3cnc4c(N5CCc6ncccc6C5)n[nH]c4n3)CC2)[C@@H]1N` [Compound 267]: < 1000 nM; `C[C@@H]1OCC2(CCN(c3cnc4c(N5CCc6ccccc6C5)n[nH]c4n3)CC2)[C@@H]1N` [Compound 268]: < 1000 nM.
For `C[C@@H]1OCC2(CCN(c3cnc4c(N5CCOc6ccccc6C5)n[nH]c4n3)CC2)[C@@H]1N` [Compound 269] the value was < 1000 nM; for `C[C@@H]1OCC2(CCN(c3cnc4c(N5CCc6ccccc6C5=O)n[nH]c4n3)CC2)[C@@H]1N` [Compound 270], < 1000 nM.
Take `C[C@@H]1OCC2(CCN(c3cnc4c(N5CCc6cccnc6C5)n[nH]c4n3)CC2)[C@@H]1N` [Compound 271]: the IC50 is < 1000 nM.
For `C[C@@H]1OCC2(CCN(c3cnc4c(N5CCc6ccncc6C5)n[nH]c4n3)CC2)[C@@H]1N` [Compound 272], the IC50 is < 1000 nM.
Next, `C[C@@H]1OCC2(CCN(c3cnc4c(N5CCc6cc(C#N)ccc6C5)n[nH]c4n3)CC2)[C@@H]1N` [Compound 273]: < 1000 nM.
Next, `C[C@@H]1OCC2(CCN(c3cnc4c(N5CCc6c(C#N)cccc6C5)n[nH]c4n3)CC2)[C@@H]1N` [Compound 274]: < 1000 nM.
For `C[C@@H]1OCC2(CCN(c3cnc4c(N5CC(=O)N(C)c6cc(C#N)ccc65)n[nH]c4n3)CC2)[C@@H]1N` [Compound 275, 1-{6-[(3S,4S)-4-amino-3-methyl-2-oxa-8-azaspiro[4.5]decan-8-yl]-1H-pyrazolo[3,4-b]pyrazin-3-yl}-4-methyl-3-oxo-1,2,3,4-tetrahydroquinoxaline-6-carbonitrile], the concentration for half-maximal inhibition (IC50) was < 1000 nM.
For `C[C@@H]1OCC2(CCN(c3cnc4c(N5CCN(C)c6cnccc65)n[nH]c4n3)CC2)[C@@H]1N` [Compound 276] the value was < 1000 nM; for `C[C@@H]1CCN(c2n[nH]c3nc(N4CCC5(CC4)CO[C@@H](C)[C@H]5N)cnc23)c2cccc(-c3cnn(C)c3)c21` [Compound 277], < 1000 nM; for `C[C@@H]1OCC2(CCN(c3cnc4c(N5CC[C@H](C)c6c(-c7cnn(C)c7)cccc65)n[nH]c4n3)CC2)[C@@H]1N` [Compound 278], < 1000 nM.
Next, `C[C@@H]1OCC2(CCN(c3cnc4c(N5CCCc6nc(-n7cncn7)ccc65)n[nH]c4n3)CC2)[C@@H]1N` [Compound 279]: < 1000 nM.
